Patent US4536335A, “Carbapenem antibiotics” (Bristol-Myers Company, priority 1983, dated 1985)
Values after ≈ are worked out from the molar mass of the structure shown.

Tests used:
S. pneumoniae A-9585 = assay: In vitro MIC, tube dilution; type: cell-based; settings: Nutrient Broth, overnight incubation at 37° C., additional data table
S. pyogenes A-9604 = assay: In vitro MIC, tube dilution; type: cell-based; settings: tube dilution, Nutrient Broth, overnight incubation at 37° C.; additional data table
S. aureus A-9537 = assay: In vitro MIC, tube dilution; type: cell-based; settings: tube dilution, overnight incubation at 37° C., additional data table
[1] = system: S. aureus A-9606 (Pen-res.); assay: In vitro MIC, tube dilution; type: cell-based; settings: Nutrient Broth, overnight incubation at 37° C., additional data table
S. faecalis A20688 = assay: In vitro MIC, tube dilution; type: cell-based; settings: tube dilution, Nutrient Broth, overnight incubation at 37° C.; additional data table
E. coli A15119 = assay: In vitro MIC, tube dilution; type: cell-based; settings: tube dilution, Nutrient Broth, overnight incubation at 37° C.; additional data table
E. coli A20341-1 = assay: In vitro MIC, tube dilution; type: cell-based; settings: tube dilution, Nutrient Broth, overnight incubation at 37° C.; additional data table
K. pneumoniae A-9664 = assay: In vitro MIC, tube dilution; type: cell-based; settings: tube dilution, Nutrient Broth, overnight incubation at 37° C.; additional data table
K. pneumoniae A20468 = assay: In vitro MIC, tube dilution; type: cell-based; settings: tube dilution, Nutrient Broth, overnight incubation at 37° C.; additional data table
P. mirabilis A-9900 = assay: In vitro MIC, tube dilution; type: cell-based; settings: tube dilution, Nutrient Broth, overnight incubation at 37° C.; additional data table
P. vulgaris A21559 = assay: In vitro MIC, tube dilution; type: cell-based; settings: tube dilution, Nutrient Broth, overnight incubation at 37° C.; additional data table
P. morganii A15153 = assay: In vitro MIC, tube dilution; type: cell-based; settings: tube dilution, Nutrient Broth, overnight incubation at 37° C.; additional data table
P. rettgeri A22424 = assay: In vitro MIC, tube dilution; type: cell-based; settings: tube dilution, Nutrient Broth, overnight incubation at 37° C.; additional data table
S. marcescens A20019 = assay: In vitro MIC, tube dilution; type: cell-based; settings: tube dilution, Nutrient Broth, overnight incubation at 37° C.; additional data table
E. cloacae A-9656 = assay: In vitro MIC, tube dilution; type: cell-based; settings: tube dilution, Nutrient Broth, overnight incubation at 37° C.; additional data table
P. aeruginosa A-9843A [2] = assay: In vitro MIC, tube dilution; type: cell-based; settings: Nutrient Broth, overnight incubation at 37° C., additional data table
P. aeruginosa A21213 = assay: In vitro MIC, tube dilution; type: cell-based; settings: tube dilution, Nutrient Broth, overnight incubation at 37° C.; additional data table
E. cloacae A-9659 = assay: In vitro MIC, tube dilution; type: cell-based; settings: tube dilution, Nutrient Broth, overnight incubation at 37° C.; additional data table
Excerpt: N-formimidoyl thienamycin was included as a comparison compound.

P. aeruginosa A-9843a [3] = assay: Protective effect in the intramuscular treatment of infected mice (PD50); type: in vivo; settings: Pseudomonas aeruginosa, A9843A, im, read-out: PD50/treatment, P. aeruginosa A9843A
Procedure: The PD50 (dose in mg/kg required to give protection to 50% of the infected mice) is indicated.
Treatment Schedule: Mice were treated i.m. with drugs 0 and 2 hours post-infection; 5 mice per dose were used for each test
*For compound of Ex. 2, mice were infected i.p. with 2 × 10^9
compounds of Ex. 4 and 5, mice were infected i.p. with ~9 ×
were treated i.m. with drugs 0 and 2 h postinfection.

[4] = Blood levels in mice after intramuscular administration; type: in vivo; settings: mouse, blood, im, 20 mg/kg, intramuscular dose of 20 mg/kg
Excerpt: Compounds were solubilized in 0.1 M phosphate buffer pH 7. Values are fro
a single test; 4 mice used per compound.
*t1/2 refers to halflife in minutes
**AUC refers to the area under the blood concentrationtime curve
(§1) Also shown is the urinary recovery in the mice.
Compounds were solubilized in 0.1 M phosphate buffer, pH 7.
Values based on a single test; 4 mice per compound.
*T1/2 refers to halflife in minutes

[5] = Urinary recovery after intramuscular administration to mice; type: in vivo; settings: mouse, urine, im, 20 mg/kg, intramuscular dose of 20 mg/kg, 0-6 hour collection, read-out: Urine Recovery
Procedure: Compounds were solubilized in 0.1 M phosphate buffer pH 7. Values are from a single test; 4 mice per compound.
as §1
***Recovery based on 0-6 hour collection

[6] = Half-life in phosphate buffer solution; type: physicochemical; settings: 0.065 m phosphate buffer, pH 7.4, 0.065 M, pH 7.4 phosphate buffer, 37° C.; read-out: T 1/2 (solution stability) (converted)
Procedure: A solution of para-nitrobenzyl 3-[2-(N-methylthiomorpholinium diphenylphosphate)ethylthio]-6α-[1'-(R)-hydroxyethyl]-7-oxo-1-azabicyclo[3.2.0]hept-2-ene-2-carboxylate (1.31 g, 1.76 mmol) in 0.1 M pH 7.4 phosphate buffer (48.8 mL), tetrahydrofuran (20 mL) and diethyl ether (20 mL) was hydrogenated over 10% pd/C (1.5 g) in a Parr shaker for 1 h at 40 psi. The reaction mixture was diluted with diethyl ether (40 mL) and the phases were separated. The organic phase was washed with water (2×5 mL). The aqueous phases were combined, filtered through a #52 hardened filter paper, washed with diethyl ether (2×20 mL) and pumped under vacuum. The aqueous solution was poured on a silica gel reverse phase column and the desired carbapenem was eluted with 5% acetonitrile-water.
To a solution of p-nitrobenzyl (5R,6S)-3-[2-(1-methylmorpholino)ethylthio]-6-[(R)-1-hydroxyethyl]-7-oxo-1-azabicyclo[3.2.0]hept-2-ene-2-carboxylate diphenylphosphate (0.360 g, 0.49 mmol) in 13 mL of phosphate buffer (0.05 M pH 7.4) was added 0.36 g of 10% palladium-on-charcoal, 20 mL of tetrahydrofuran and 20 mL of diethyl ether. This mixture was hydrogenated (Parr) at 32 psi for 1 h. The mixture was filtered through Celite and the filter pad was washed with H2 O and diethyl ether. The aqueous phase was separated and the pH was adjusted to 7.0 with additional pH 7.4 phosphate buffer. After removing residual organic solvents in vacuo the aqueous solution was applied to a C18 reverse-phase column.
To a solution of (5R,6S)paranitrobenzyl 3-[2-(1,4-dimethyl-1-piperazinium)ethylthio]-6-[1-(R)-hydroxyethyl]-7-oxo- 1-azabicyclo[3.2.0]hept-2-ene-2-carboxylate diphenylphosphate (0.47 g, 0.623 mmol) in wet tetrahydrofuran (25 mL) was added diethyl ether (25 mL), potassium phosphate monobasic-sodium hydroxide buffer (13 mL, pH 7.22) and 10% palladium on charcoal (0.47 g). The resulting mixture was hydrogenated at 23° C. under 40 psi for 1 h. The two layers were separated and the organic layer was extracted with water (2×7 mL).
To a cold (-10° C.) solution of (5R,6S)-3-[2 -(N-methyl-thiomorpholinium)ethylthio]-6-[1-(R)-hydroxyethyl]-7-oxo-1-azabicyclo(3.2.0)-hept-2-ene-2-carboxylate (608 mg, 1.65 mmol) in a 1:1 mixture of acetonitrile-water (9 mL) was added m-chloroperbenzoic acid (334.8 mg, 1.65 mmol) in small portion over a 1 hour period. The mixture was then diluted with water (15 mL) and washed with diethyl ether (3×15 mL).
A mixture of (5R,6S) paranitrobenzyl 3-[2-(1,4,4-trimethyl-1-piperazinium)ethylthio]-6-[1R-hydroxyethyl]-7-oxo- 1-azabicyclo(3.2.0)hept-2-ene-2-carboxylate bischloride (0.40 g, 0.68 mmol), phosphate buffer (30 mL, 0.05M, pH 7.0), tetrahydrofuran (10 mL), ether (30 mL) and 10% palladium on charcoal (0.40 g) was hydrogenated at 23° C. under 35 psi for 1 h. The two phases were separated. The organic phase was extracted with water (10 mL).

C[C@@H](O)[C@H]1C(=O)N2C(C(=O)[O-])=C(SCC[N+]3(C)CC[S+]([O-])CC3)C[C@H]12 (single isomer, unassigned) [Ex. 5 comp. A]
MIC S. pneumoniae A-9585 (S. pneumoniae A-9585): 0.004 mg/L (≈ 0.0103 µM) | MIC S. pyogenes A-9604 (S. pyogenes A-9604): 0.004 mg/L (≈ 0.0103 µM) | MIC S. aureus-50% serum A-9537 (S. aureus A-9537; 50% serum): 0.03 mg/L (≈ 0.0772 µM) | MIC S. aureus A-9537 (S. aureus A-9537; Nutrient Broth): 0.016 mg/L (≈ 0.0412 µM) | MIC S. aureus (Pen-res.) A-9606 [1]: 0.03 mg/L (≈ 0.0772 µM) | MIC S. faecalis A20688 (S. faecalis A20688): 0.05 mg/L (≈ 0.129 µM) | MIC E. coli A15119 (E. coli A15119): 0.03 mg/L (≈ 0.0772 µM) | MIC E. coli A20341-1 (E. coli A20341-1): 0.03 mg/L (≈ 0.0772 µM) | MIC K. pneumoniae A-9664 (K. pneumoniae A-9664): 0.06 mg/L (≈ 0.154 µM) | MIC K. pneumoniae A20468 (K. pneumoniae A20468): 0.13 mg/L (≈ 0.335 µM) | MIC P. mirabilis A-9900 (P. mirabilis A-9900): 0.13 mg/L (≈ 0.335 µM) | MIC P. vulgaris A21559 (P. vulgaris A21559): 0.06 mg/L (≈ 0.154 µM) | MIC M. morganii A15153 (P. morganii A15153): 0.13 mg/L (≈ 0.335 µM) | MIC P. rettgeri A22424 (P. rettgeri A22424): 0.25 mg/L (≈ 0.643 µM) | MIC S. marcescens A20019 (S. marcescens A20019): 0.06 mg/L (≈ 0.154 µM) | MIC E. cloacae A-9656 (E. cloacae A-9656): 0.13 mg/L (≈ 0.335 µM) | MIC P. aeruginosa A-9843a (P. aeruginosa A-9843A [2]): 32 mg/L (≈ 82.4 µM) | MIC P. aeruginosa A21213 (P. aeruginosa A21213): 16 mg/L (≈ 41.2 µM) | MIC E. cloacae A-9659 (E. cloacae A-9659): 0.13 mg/L (≈ 0.335 µM) | ED50 (P. aeruginosa A-9843a [3]): > 12.5 mg/kg | Cmax [4]: 10.2 µg/mL | AUC ([4]; read-out: Blood AUC): 3.1 µg·h/mL | half-life ([4]; read-out: Blood T1/2): 7 min | dose excreted at 6 h [5]: 14 ± 1% | half-life [6]: 12 h
